These are literature values, as cited in patent US20110034507A1, “FARNESOID X RECEPTOR AGONISTS” (SMITHKLINE BEECHAM CORPORATION, priority 2007, published 2011).

Molecules are shown by their SMILES. “Also recorded” adds a separate entry of the source.

The subject of data set [1] is rodent models of hepatic fibrosis. Particulars: multiple rodent models; cited from earlier work.
Data set [2] has as its system hepatic stellate cells (HSC). Particulars: cultured HSCs; cited from earlier work.
In data set [3] the test system is mice on a lithogenic diet. To be noted: cited from earlier work.
Another data set concerns ob/ob mice. Particulars: 30 mg/kg intraperitoneally, male ob/ob mice; cited from earlier work.
For a further data set, the system named is bile duct-ligated mouse. To be noted: cited from earlier work.
For data set [4], the system named is C57BL mice on high-fat diet. Particulars: cited from earlier work.
Another data set deals with db/db mice. Particulars: cited from earlier work.
Where [5] appears, read: GW4064 100 mg/kg twice a day orally.

For the compound `CC[C@H]1[C@@H](O)[C@@H]2[C@H](CC[C@]3(C)[C@@H]([C@H](C)CCC(=O)O)CC[C@@H]23)[C@@]2(C)CC[C@@H](O)C[C@@H]12` [Example 6EtCDCA, 6-ethyl-chenodeoxycholic acid], the hepatic fibrosis entry in data set [1] was “prevent development and promote resolution”. Moreover, in data set [2], the “expression of α1(I)collagen” value was “decreased” and the “expression of α-smooth muscle actin” value is reported as “decreased”.
Consider `CC(C)c1onc(-c2c(Cl)cccc2Cl)c1COc1ccc(/C=C/c2cccc(C(=O)O)c2)c(Cl)c1` [GW4064], for which the “effect on cholesterol crystal formation in FXR null mice” value in data set [3] (FXR null mice) is given as “lost”. In addition, in data set [3] (mice on a lithogenic diet), the “formation of cholesterol crystals in the bile” value was “prevented”. For the same compound, in the data set on ob/ob mice, the body weight entry is given as “did not alter”, the fasting blood glucose result is listed as “no effect”, the food intake entry is listed as “did not alter” and the glucose tolerance result is listed as “improved”. Further, in the data set with ob/ob mice, the insulin concentration entry is “decreased” and the insulin sensitivity result was “enhanced”. Also, in the data set with bile duct-ligated mouse (FXR null mice), the “effect on translocation of bacteria in FXR null mice” value is “lost”. In the data set with bile duct-ligated mouse (bile duct-ligated mouse), the bacterial overgrowth result is given as “decreased”, the mucosal barrier entry is “improved” and the “translocation of bacteria to mesenteric lymph nodes” value was “decreased”. Also, in data set [4] (GW4064 100 mg/kg twice a day orally, 100 mg/kg), the “body weight (high-fat diet induced body weight gain)” value is recorded as “decreased; also recorded: reduced”. Besides, in data set [4] (GW4064 100 mg/kg twice a day orally, GTT, 100 mg/kg), the glucose tolerance entry was “corrected glucose intolerance; also recorded: appeared to improve”. Besides, in data set [4] (setting [5]), the liver triglyceride content entry is reported as “reduced”, the serum glucose result is listed as “decreased”, the serum insulin result was “decreased” and the serum triglyceride entry is given as “decreased”. Also, in data set [4], the body fat mass result is given as “decreased” and the total cholesterol result is recorded as “decreased”. In the data set with db/db mice (db/db mice), the “glycogen storage in the liver” value is reported as “enhanced” and the “insulin signalling in the liver” value was “enhanced”. In the data set on db/db mice (diabetic db/db mice), the hyperglycemia result is listed as “significantly improved” and the hyperlipidemia result was “significantly improved”. In the data set on db/db mice (oral 30 mg/kg, bid, db/db mice), the NEFA entry was “decreased”, the blood glucose entry is reported as “decreased”, the serum hydroxybutyrate entry was “decreased” and the total cholesterol entry is listed as “decreased”. In addition, the triglyceride result in the data set with db/db mice (oral 30 mg/kg, bid, db/db mice) is “decreased”.
